Experimental data reported in patent US20190315823A1, “SMALL CATIONIC ANTI-BIOFILM AND IDR PEPTIDES” (priority 2013, published 2019).
Ends that are not written are not given here.

Assays:
[1] = test system: methicillin resistant Staphylococcus aureus (MRSA) biofilm; details: approximate peptide concentration […] (around 3 μg/ml); compared to untreated samples
Summary of the method: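 Static biofilm assay: 1/100 dilutions of overnight cultures grown in BM2 medium (pH 7, glucose, Casamino Acids) or Luria Broth with peptide added at time zero. After 22–46 h, adherent biofilm was stained with crystal violet and read at 595 nm. Some peptides were also tested on K. pneumoniae under flow in a Bioflux system.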

[2] = test system: human peripheral blood mononuclear cells (MCP-1); assay: SPOT-synthesized derivative screen: production of chemokine MCP-1; format: cell-based; details: Table 12, No LPS, human PBMC, peptide at ~18-24 μM; for MCP1: background subtracted 139 (HH2 derivatives), 170 (1018 derivatives), 242 (1002 and hybrid peptides) pg/ml
Summary of the method: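 PBMC from heparinized healthy-donor venous blood, Ficoll-separated, cultured at 0.75 to 1×10^6 cells/ml, 37 °C, 5% CO2, under the treatment regimens. MCP-1 in cell-free supernatants measured by capture ELISA.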

[3] = test system: LPS-stimulated human peripheral blood mononuclear cells (IL1-β); format: cell-based; details: Table 12, cells stimulated with 10 ng/ml LPS; for IL1β Production: LPS alone 1313 (HH2 derivatives), 1927 (1018 derivatives), 2455 (1002 and hybrid peptides) pg/ml

| Substance | % Biofilm inhibition [1] [%] | Fold increase in MCP1 cf. untreated cells [2] | MCP1 [2] [pg/mL] | Fold change in IL1β relative to no peptide LPS stimulated cells [3] | IL1β Production [3] [pg/mL] |
| --- | --- | --- | --- | --- | --- |
| 1018-W4: single substituted 1018 peptide (VRLWVAVRIWRR-NH2) [Peptide 1018-W4] | 67 | 1.2 | 29 | 0.14 | 182 |
| 1018-K4: single substituted 1018 peptide (VRLKVAVRIWRR-NH2) [Peptide 1018-K4] | 41 | 1.2 | 40 | 0.30 | 393 |
| 1002-A11: single substituted 1002 peptide (VQRWLIVWRIAK-NH2) [Peptide 1002-A11] | 52 | 3.0 | 485.3 | 0.05 | 127 |
| 1002-K1: single substituted 1002 peptide (KQRWLIVWRIRK-NH2) [Peptide 1002-K1] | 75 | 26.4 | 6146.9 | 0.05 | 127 |
| 1002-R7: single substituted 1002 peptide (VQRWLIRWRIRK-NH2) [Peptide 1002-R7] | 58 | 2.1 | 270.8 | 0.16 | 382 |
| 1002-L6: single substituted 1002 peptide (VQRWLLVWRIRK-NH2) [Peptide 1002-L6] | 52 | 1.3 | 68.0 | 0.05 | 127 |
| 1002-Q1: single substituted 1002 peptide (QQRWLIVWRIRK-NH2) [Peptide 1002-Q1] | 77 | 6.9 | 1423.5 | 0.05 | 127 |
| 1018-W1: single substituted 1018 peptide (WRLIVAVRIWRR-NH2) [Peptide 1018-W1] | 68 | 5.0 | 684 | 0.16 | 204 |
| 1002-K9: single substituted 1002 peptide (VQRWLIVWKIRK-NH2) [Peptide 1002-K9] | 50 | 1.6 | 143.9 | 0.05 | 127 |
| 1018-W9: single substituted 1018 peptide (VRLIVAVRWWRR-NH2) [Peptide 1018-W9] | 69 | 2.5 | 247 | 0.10 | 127 |
| 1018-V6: single substituted 1018 peptide (VRLIVVVRIWRR-NH2) [Peptide 1018-V6] | 70 | 1.6 | 110 | 0.17 | 226 |
| 1018-G10: single substituted 1018 peptide (VRLIVAVRIGRR-NH2) [Peptide 1018-G10] | 55 | 0.8 | -41 | 0.46 | 605 |
| 1002-K6: single substituted 1002 peptide (VQRWLKVWRIRK-NH2) [Peptide 1002-K6] | 2 | 0.9 | -36.2 | 0.33 | 808 |
| HH2-Q3: single substituted HH2 peptide (VQQRIRVAVIRA-NH2) | 28 | 6.8 | 989 | 0.87 | 1141 |
| 1018-Q8: single substituted 1018 peptide (VRLIVAVQIWRR-NH2) [Peptide 1018-Q8] | 51 | 0.4 | -104 | 0.10 | 127 |
| 1018-R1: single substituted 1018 peptide (RRLIVAVRIWRR-NH2) [Peptide 1018-R1] | 46 | 5.9 | 832 | 0.13 | 176 |
| HH2-W4: single substituted HH2 peptide (VQLWIRVAVIRA-NH2) | 58 | 24 | 3945 | 0.30 | 399 |
| HH2-K6: single substituted HH2 peptide (VQLRIKVAVIRA-NH2) | 64 | 142 | 23989 | 0.80 | 1055 |
| 1002-V5: single substituted 1002 peptide (VQRWVIVWRIRK-NH2) [Peptide 1002-V5] | 75 | 38.2 | 9022.6 | 0.18 | 440 |
| 1002-W5: single substituted 1002 peptide (VQRWWIVWRIRK-NH2) [Peptide 1002-W5] | 76 | 0.9 | -36.2 | 0.05 | 127 |
| HH2-K9: single substituted HH2 peptide (VQLRIRVAKIRA-NH2) | 52 | 2.1 | 180 | 1.16 | 1520 |
| 1002-A1: single substituted 1002 peptide (AQRWLIVWRIRK-NH2) [Peptide 1002-A1] | 55 | 19.8 | 4559.2 | 0.05 | 127 |
| HH2-K11: single substituted HH2 peptide (VQLRIRVAVIKA-NH2) | 43 | 18 | 2884 | 1.21 | 1593 |
| HH2-G1: single substituted HH2 peptide (GQLRIRVAVIRA-NH2) | 65 | 1.9 | 157 | 1.17 | 1533 |
| 1002-I11: single substituted 1002 peptide (VQRWLIVWRIIK-NH2) [Peptide 1002-I11] | 67 | 2.0 | 238.8 | 0.05 | 127 |
| 1018-V9: single substituted 1018 peptide (VRLIVAVRVWRR-NH2) [Peptide 1018-V9] | 53 | 105 | 17711 | 0.11 | 142 |
| HH2-W11: single substituted HH2 peptide (VQLRIRVAVIWA-NH2) | 45 | 15 | 2309 | 1.04 | 1362 |
| 1002-A5: single substituted 1002 peptide (VQRWAIVWRIRK-NH2) [Peptide 1002-A5] | 70 | 0.9 | -36.2 | 0.07 | 182 |
| HH2-R12: single substituted HH2 peptide (VQLRIRVAVIRR-NH2) | 80 | 51 | 8574 | 1.23 | 1618 |
| 1002-Q7: single substituted 1002 peptide (VQRWLIQWRIRK-NH2) [Peptide 1002-Q7] | 45 | 0.9 | -36.2 | 0.06 | 138 |
